Measured values: ChEMBL document CHEMBL1201862, “PubChem BioAssay data set” (2004)
Activity calls are given as the source filed them.

Assays:
Genome polyprotein [1] = target: T1, Genome polyprotein (Hepatitis C virus, UniProt Q2Q167); test: Late stage assay provider counterscreen results for the probe development effort to identify inhibitors of Hepatitis C Virus (HCV) core protein dimerization: Luminescence-based biochemical AlphaScreen assay to identify inhibitors of HCV core dimerization.; type: functional, Hepacivirus hominis
T1 sequence (Q2Q167 whole entry): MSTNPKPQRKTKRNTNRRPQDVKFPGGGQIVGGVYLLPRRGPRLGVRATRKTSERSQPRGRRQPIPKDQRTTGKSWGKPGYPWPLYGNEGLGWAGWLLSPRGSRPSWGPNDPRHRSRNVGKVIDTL

Genome polyprotein [2] = target: T1, Genome polyprotein; test: disruption of hepatitis C core self-association – biochemical, TR-FRET, dose response (AID 2159); parameters: species or system Hepacivirus hominis;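 further: blocks dimerization of HCV core protein measured by TR-FRET between tagged core106 pairs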
[3] = target: T2, Sentrin-specific protease 1 (Homo sapiens, UniProt Q9P0U3); test: SENP1 catalytic domain blockers, concentration series – biochemical, kinetic FRET, dose response (AID 651697); type: functional; conditions: read-out: IC50_Mean
Large T antigen = Large T antigen (Simian virus 40, UniProt P03070); type: functional, Betapolyomavirus macacae;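 further: Confirmatory-stage PubChem screen for compounds that inhibit SV40 T antigen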
[4] = target: T2, Sentrin-specific protease 1; test: Dose response confirmation of small molecule inhibitors of the catalytic domain of the SUMO protease, SENP1 in a FRET assay.; type: functional; conditions: read-out: IC50_Mean
[5] = mouse fibroblast viability loss – cell-based, cherry-pick samples, set 2, cytotoxicity control for T. cruzi growth inhibitor project, dose response (AID 651817); type: functional; conditions: NIH3T3
[6] = intracellular Trypanosoma cruzi inhibitors in host cells – cell-based, plate reader, cherry-pick samples, set 3, dose response (AID 651818); type: functional;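 further: compounds incubated with infected cells for about four days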
[7] = viability loss in HEK293 cells – cell-based, plate reader, cherry-picked samples, cytotoxicity control, dose response (AID 743446); type: functional
Interleukin-8 [8] = target: T3, Interleukin-8 (Homo sapiens, UniProt P10145); test: Dose Response confirmation of uHTS small molecule hits for cystic fibrosis induced NFkb Inhibitors in a PAF-induced IL8 counterscreen.; type: functional; conditions: read-out: IC50_Mean
[9] = blockade of melanocortin 4 receptor signaling – cell-based, plate reader, cherry pick, counter-screen for LGR2 antagonist project, dose response (AID 743444); type: functional;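 further: transfected HEK 293 cells stimulated with alpha-MSH peptide; potency of inhibitors of the alpha-MSH evoked signal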
[10] = A549 cell cytotoxicity, dose response, cytotoxicity control, plate reader, cherry-pick, antagonist series (AID 743412); type: functional, cell-based
[11] = target: T4, Microphthalmia-associated transcription factor (Homo sapiens, UniProt O75030); test: reducers of TRPM1 reporter luminescence, concentration series – cell-based, SK-MEL-5, cherry-picked, set 3, MITF inhibitor project, dose response (AID 493073); type: functional;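 further: SK-MEL-5 melanoma cells with luciferase driven by the MITF target TRPM1 promoter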
T4 sequence (O75030 whole entry): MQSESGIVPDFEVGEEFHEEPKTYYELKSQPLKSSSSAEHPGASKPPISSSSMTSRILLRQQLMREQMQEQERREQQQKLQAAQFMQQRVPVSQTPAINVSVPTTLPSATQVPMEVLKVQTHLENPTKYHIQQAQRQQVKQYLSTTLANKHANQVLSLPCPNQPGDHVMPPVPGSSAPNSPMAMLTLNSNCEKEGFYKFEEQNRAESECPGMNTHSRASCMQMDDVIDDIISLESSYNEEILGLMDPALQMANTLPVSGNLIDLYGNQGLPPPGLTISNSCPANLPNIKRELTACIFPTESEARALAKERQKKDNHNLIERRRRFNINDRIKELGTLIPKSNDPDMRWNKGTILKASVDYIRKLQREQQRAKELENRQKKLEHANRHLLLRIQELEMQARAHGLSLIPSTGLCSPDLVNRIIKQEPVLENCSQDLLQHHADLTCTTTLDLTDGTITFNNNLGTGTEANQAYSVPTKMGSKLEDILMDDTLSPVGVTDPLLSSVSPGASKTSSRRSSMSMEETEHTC

[12] = reduction of Shn3 3'UTR-driven luciferase in osteoblasts – cell-based, Clone20 osteoblasts, firefly luciferase, cherry-picked, dose response (AID 624132); type: functional;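 further: firefly luciferase luminescence from reporter carrying the Shn3 3'UTR in osteoblasts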
[13] = non-specific 3'UTR reporter inhibition in Clone20-Shn3RL – cell-based, Renilla luciferase, cherry-picked, counter-screen for Shn3 inhibitor project, dose response (AID 624133); type: functional
Paired box protein Pax-8 = Paired box protein Pax-8 (Homo sapiens, UniProt Q06710); test: PAX8 transcriptional activity inhibition in RMG-I – RMG-I cells, luciferase, cherry-pick, dose response (AID 687027); type: functional, cell-based;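 further: luciferase reporter driven by Pax8 target thyroperoxidase promoter measured by SteadyGlo luminescence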
[14] = target: T5, Heat shock factor protein 1 (Mus musculus, UniProt P38532); test: decrease of HSF1-responsive luciferase luminescence – cell-based, NIH3T3, dose retest, confirmation (AID 2382); type: functional;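 further: NIH3T3 fibroblasts with HSF1-driven luciferase reporter stressed by proteasome inhibitor MG132; luminescence from HSF1-driven luciferase expression after 8 hours of MG132 stress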
T5 sequence (P38532 whole entry): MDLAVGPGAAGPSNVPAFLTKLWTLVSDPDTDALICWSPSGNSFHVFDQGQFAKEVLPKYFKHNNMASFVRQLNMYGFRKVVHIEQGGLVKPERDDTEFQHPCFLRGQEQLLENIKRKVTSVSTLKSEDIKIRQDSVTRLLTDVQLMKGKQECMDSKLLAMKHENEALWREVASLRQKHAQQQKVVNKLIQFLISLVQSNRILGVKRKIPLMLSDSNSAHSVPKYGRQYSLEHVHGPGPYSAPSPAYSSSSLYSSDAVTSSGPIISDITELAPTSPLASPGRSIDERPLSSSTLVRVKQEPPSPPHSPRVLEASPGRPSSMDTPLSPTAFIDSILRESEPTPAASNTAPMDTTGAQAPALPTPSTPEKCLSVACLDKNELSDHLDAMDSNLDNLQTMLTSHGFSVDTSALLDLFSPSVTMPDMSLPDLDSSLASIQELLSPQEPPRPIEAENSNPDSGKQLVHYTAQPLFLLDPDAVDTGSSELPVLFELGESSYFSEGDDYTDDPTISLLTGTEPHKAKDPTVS

Interleukin-8 [15] = target: T3, Interleukin-8; test: Dose Response confirmation of uHTS small molecule hits for cystic fibrosis induced NFkb Inhibitors in a TNFa-induced IL8 counterscreen.; type: functional; conditions: read-out: IC50_Mean
[16] = toxicity toward HepG2 liver cells – cell-based, plate reader, cherry-pick, antagonist series, cytotoxicity control, dose response (AID 743416); type: functional
[17] = loss of viability in HepG2 cells – cell-based, CellTiter-Glo, cherry-picked, cytotoxicity control for Shn3 inhibitor project, dose response (AID 624134); type: functional
[18] = blockers of bursicon-stimulated LGR2 cAMP reporter – cell-based, HEK293, CRE-luciferase reporter, cherry pick, set 2, dose response (AID 743343); type: functional;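 further: transfected cells were stimulated with diluted bursicon conditioned medium after compound addition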
Protein S100-A4 = Protein S100-A4 (Homo sapiens, UniProt P26447); test: human S100A4 peptide interaction inhibition curves – biochemical, fluorescence polarization, cherry-picked hits, dose response (AID 687001); type: functional
[19] = target: Heat shock protein HSP 90-alpha (Homo sapiens, UniProt P07900); type: functional, organism-based

Chain of Paired box protein Pax-8 (Q06710 whole entry): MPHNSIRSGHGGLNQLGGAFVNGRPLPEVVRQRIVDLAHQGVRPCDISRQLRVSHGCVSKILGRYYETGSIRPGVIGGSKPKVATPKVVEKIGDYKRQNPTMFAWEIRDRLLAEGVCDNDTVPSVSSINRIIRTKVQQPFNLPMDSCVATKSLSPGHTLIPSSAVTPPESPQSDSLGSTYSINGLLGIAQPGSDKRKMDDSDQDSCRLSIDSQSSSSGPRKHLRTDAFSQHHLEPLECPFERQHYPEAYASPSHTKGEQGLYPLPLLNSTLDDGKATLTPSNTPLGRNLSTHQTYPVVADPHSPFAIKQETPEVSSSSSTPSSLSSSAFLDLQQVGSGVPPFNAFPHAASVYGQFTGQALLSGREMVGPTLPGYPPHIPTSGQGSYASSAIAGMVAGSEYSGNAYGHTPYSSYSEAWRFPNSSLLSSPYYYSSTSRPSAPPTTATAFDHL
T2 sequence (Q9P0U3 whole entry, the tested form may be a part): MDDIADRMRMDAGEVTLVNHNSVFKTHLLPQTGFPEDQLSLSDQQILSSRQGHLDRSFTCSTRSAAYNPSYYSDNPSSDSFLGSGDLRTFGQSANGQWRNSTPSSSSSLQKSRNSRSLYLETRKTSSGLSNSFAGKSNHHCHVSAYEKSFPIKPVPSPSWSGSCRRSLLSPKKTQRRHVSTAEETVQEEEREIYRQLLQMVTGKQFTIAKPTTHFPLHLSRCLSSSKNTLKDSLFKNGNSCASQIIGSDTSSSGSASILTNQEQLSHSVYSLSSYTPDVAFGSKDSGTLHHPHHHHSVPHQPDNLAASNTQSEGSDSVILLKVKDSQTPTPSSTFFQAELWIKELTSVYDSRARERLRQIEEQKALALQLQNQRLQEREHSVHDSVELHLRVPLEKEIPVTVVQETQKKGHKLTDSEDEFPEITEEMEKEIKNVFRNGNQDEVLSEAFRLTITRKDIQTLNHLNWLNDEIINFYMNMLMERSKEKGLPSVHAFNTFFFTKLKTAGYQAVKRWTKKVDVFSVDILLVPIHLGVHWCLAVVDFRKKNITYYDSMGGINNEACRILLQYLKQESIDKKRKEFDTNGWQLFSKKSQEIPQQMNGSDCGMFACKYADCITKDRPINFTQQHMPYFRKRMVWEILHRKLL
T3 sequence (P10145 whole entry): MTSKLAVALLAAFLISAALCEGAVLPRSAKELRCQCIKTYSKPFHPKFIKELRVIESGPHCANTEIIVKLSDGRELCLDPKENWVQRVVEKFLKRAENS
Chain of Protein S100-A4 (P26447 whole entry): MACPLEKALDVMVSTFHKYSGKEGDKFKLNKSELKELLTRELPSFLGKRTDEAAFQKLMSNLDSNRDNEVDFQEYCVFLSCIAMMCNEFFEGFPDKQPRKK
Chain of Large T antigen (P03070 whole entry, the tested form may be a part): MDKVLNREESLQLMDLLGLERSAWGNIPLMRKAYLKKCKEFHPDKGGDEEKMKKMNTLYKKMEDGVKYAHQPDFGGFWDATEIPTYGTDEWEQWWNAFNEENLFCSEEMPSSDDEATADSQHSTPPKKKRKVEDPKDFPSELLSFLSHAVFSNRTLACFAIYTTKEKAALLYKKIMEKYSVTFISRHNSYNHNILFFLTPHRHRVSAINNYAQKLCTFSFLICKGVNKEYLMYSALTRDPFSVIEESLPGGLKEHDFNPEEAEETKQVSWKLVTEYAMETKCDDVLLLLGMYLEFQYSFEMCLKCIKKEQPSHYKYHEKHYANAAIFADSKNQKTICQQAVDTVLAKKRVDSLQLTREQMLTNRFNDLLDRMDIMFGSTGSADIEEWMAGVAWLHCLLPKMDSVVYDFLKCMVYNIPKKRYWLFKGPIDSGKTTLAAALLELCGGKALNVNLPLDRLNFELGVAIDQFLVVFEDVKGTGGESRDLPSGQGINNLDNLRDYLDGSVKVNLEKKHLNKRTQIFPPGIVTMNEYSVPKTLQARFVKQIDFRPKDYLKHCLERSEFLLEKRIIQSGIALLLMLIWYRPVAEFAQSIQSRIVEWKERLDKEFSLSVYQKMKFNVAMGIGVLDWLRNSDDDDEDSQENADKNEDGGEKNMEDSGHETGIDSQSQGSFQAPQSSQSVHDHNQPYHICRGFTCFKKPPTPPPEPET

## CC1=C(/C=C/C(C)=C/C=C/C(C)=C/C=C/C=C(C)/C=C/C=C(C)/C=C/C2=C(C)CCCC2(C)C)C(C)(C)CCC1 [BETA CAROTENE]
Genome polyprotein [1]
  IC50: 34.8 µM (inactive)
Genome polyprotein [2]
  IC50: 29.7 µM (not active)

## COc1cc(SC#N)ccc1/N=C/c1c(C)[nH]n(-c2ccc(C)cc2C)c1=O
[3]
  IC50: 24.8 µM (inactive)
Large T antigen
  IC50: 7.19 µM (active)
[4]
  IC50: 15 µM (active)

## Cc1ccc(S(=O)(=O)N(C)C[C@H]2Oc3ccc(NS(=O)(=O)c4ccc(Cl)cc4)cc3CC(=O)N([C@H](C)CO)C[C@H]2C)cc1
[5]
  AC50: 39 µM (inactive)
[6]
  AC50: 2.35 µM (active)

## O=C(c1nnsc1S(=O)(=O)c1ccc(Cl)cc1)N1CCOCC1
[7]
  AC50: 15.3 µM (active)
Interleukin-8 [8]
  IC50: 1.25 µM (active)
[9]
  AC50: 5.75 µM (active)
[10]
  AC50: 13.9 µM (active)
[11]
  AC50: 9.51 µM (active)
[12]
  AC50: 7.74 µM (active)
[13]
  AC50: 12.2 µM (active)
Paired box protein Pax-8
  AC50: 6.05 µM (active)
[14]
  EC50: > 195 µM (not active)
Interleukin-8 [15]
  IC50: 1.19 µM (active)
[16]
  AC50: 15.3 µM (active)
[17]
  AC50: 31.7 µM (active)
[18]
  AC50: 4.76 µM (active)

## COc1cccc2c1C(=O)c1c(O)c3c(c(O)c1C2=O)CC(O)(C(=O)CO)CC3OC1CC(N(C)C)C(O)C(C)O1 (stereo not drawn)
Protein S100-A4
  AC50: 0.257 µM (active)
[19]
  AC50: 0.296 µM (active)
Paired box protein Pax-8
  AC50: 0.833 µM (active)
